Assay results published in US20080318943A1, “Compounds and Uses Thereof - 848” (ASTRAZENECA AB, priority 2007, published 2008).

How the values were obtained:
[1] = target: T1, GABAA2 receptors (α2, β3, γ2 receptor subunits transfected into Sf9 cells) (Homo sapiens, UniProt P18507+P47869); assay: GABAA2 Binding Method ([3H]-Flunitrazepam displacement); conditions: [3H]-Flunitrazepam ~2 nM, α2β3γ2 Sf9 membranes, 1 hr at 4° C.
T1 construct: host or cells: Sf9 cells (membranes)
In short: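 Membranes from Sf9 cells expressing α2β3γ2 GABAA receptors incubated with ~2 nM (final) [3H]-flunitrazepam and test compound 1 h at 4 °C, then filtered on GF/B plates with cold-buffer washes. Flumazenil-defined controls; percent of control, IC50 and Ki calculated.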

GABAA receptor α1β2γ2 = target: T2, GABAA receptor α1β2γ2 (Homo sapiens, UniProt P14867+P18507); assay: Two-electrode voltage-clamp potentiation of GABA EC10 current in Xenopus oocytes, GABAA1; assay type: cell-based; conditions: percentage potentiation of GABA EC10 current divided by that of diazepam
T2 construct: expressed in transfected cells; host or cells: Xenopus laevis oocytes injected with cRNA
In short: (§1)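 Human GABAA receptors expressed in Xenopus oocytes by cRNA injection (α:β:γ molar ratio ~1:1:10 for α1β2γ2, 1:1:1 for α2β3γ2), recorded 2-10 days later by two-electrode voltage clamp at −60 mV in ND-96, pH 7.5. Modulator preapplied 30 s before GABA at per-oocyte EC10. Peak-current percent potentiation over GABA alone, normalised to diazepam.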

GABAA receptor α2β3γ2 = target: T3, GABAA receptor α2β3γ2 (Homo sapiens, UniProt P18507+P47869); assay: Two-electrode voltage-clamp potentiation of GABA EC10 current in Xenopus oocytes, GABAA2; assay type: cell-based; conditions: percentage potentiation of GABA EC10 current divided by that of diazepam
T3 construct: expressed in transfected cells; host or cells: Xenopus laevis oocytes injected with cRNA
In short: as §1

T3 sequence (P47869 29-451): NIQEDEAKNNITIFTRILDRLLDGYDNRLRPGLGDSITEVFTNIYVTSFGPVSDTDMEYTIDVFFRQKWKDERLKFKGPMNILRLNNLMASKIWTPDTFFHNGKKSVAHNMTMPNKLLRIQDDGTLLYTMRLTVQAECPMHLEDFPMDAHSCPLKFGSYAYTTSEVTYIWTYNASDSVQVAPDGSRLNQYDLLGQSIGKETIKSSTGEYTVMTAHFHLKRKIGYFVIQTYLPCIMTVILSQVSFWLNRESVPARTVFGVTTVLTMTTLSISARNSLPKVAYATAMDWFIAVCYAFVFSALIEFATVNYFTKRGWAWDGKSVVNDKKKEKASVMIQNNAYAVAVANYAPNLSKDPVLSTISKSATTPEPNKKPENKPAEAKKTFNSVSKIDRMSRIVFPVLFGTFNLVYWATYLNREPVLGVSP
T3 sequence (P28472 26-473 partner): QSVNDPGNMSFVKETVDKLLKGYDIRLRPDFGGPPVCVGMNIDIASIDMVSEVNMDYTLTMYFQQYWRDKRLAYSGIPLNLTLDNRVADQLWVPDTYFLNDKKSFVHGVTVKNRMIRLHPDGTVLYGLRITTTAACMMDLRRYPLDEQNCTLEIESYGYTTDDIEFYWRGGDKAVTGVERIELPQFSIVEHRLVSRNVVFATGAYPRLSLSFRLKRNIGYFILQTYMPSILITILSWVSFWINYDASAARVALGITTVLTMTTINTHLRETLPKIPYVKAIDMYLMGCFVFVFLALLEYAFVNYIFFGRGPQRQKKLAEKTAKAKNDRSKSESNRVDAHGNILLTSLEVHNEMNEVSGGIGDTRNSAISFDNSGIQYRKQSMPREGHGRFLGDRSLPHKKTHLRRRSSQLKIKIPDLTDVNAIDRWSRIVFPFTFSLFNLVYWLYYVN
T3 sequence (P18507 40-475): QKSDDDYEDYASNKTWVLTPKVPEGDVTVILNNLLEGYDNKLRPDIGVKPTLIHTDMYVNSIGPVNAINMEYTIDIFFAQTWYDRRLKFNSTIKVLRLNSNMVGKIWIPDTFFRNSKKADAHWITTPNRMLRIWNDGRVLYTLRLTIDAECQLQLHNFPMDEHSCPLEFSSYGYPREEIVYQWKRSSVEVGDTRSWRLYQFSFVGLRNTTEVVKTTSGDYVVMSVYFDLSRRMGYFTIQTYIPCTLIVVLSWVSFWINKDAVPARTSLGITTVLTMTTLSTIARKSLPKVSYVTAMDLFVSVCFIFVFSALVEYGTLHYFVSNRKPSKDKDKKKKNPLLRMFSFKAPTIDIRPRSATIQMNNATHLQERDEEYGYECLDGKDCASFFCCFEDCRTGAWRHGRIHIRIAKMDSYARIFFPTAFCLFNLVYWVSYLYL
T1 sequence (P47869 29-451): as the sequence (P47869 29-451) above
T1 sequence (P28472 26-473 partner): as the sequence (P28472 26-473 partner) above
T1 sequence (P18507 40-475): as the sequence (P18507 40-475) above
T2 sequence (P14867 28-456): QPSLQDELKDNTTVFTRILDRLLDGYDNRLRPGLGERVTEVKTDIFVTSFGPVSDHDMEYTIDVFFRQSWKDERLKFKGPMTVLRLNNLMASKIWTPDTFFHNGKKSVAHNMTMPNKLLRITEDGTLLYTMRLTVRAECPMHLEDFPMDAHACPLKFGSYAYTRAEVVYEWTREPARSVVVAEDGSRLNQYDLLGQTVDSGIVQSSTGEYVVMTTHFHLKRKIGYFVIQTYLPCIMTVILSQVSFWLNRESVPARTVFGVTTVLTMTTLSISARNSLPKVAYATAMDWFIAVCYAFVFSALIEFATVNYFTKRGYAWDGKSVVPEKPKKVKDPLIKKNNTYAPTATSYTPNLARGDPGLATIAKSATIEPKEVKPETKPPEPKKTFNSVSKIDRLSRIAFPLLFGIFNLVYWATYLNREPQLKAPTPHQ
T2 sequence (P47870 25-512 partner limits assumed): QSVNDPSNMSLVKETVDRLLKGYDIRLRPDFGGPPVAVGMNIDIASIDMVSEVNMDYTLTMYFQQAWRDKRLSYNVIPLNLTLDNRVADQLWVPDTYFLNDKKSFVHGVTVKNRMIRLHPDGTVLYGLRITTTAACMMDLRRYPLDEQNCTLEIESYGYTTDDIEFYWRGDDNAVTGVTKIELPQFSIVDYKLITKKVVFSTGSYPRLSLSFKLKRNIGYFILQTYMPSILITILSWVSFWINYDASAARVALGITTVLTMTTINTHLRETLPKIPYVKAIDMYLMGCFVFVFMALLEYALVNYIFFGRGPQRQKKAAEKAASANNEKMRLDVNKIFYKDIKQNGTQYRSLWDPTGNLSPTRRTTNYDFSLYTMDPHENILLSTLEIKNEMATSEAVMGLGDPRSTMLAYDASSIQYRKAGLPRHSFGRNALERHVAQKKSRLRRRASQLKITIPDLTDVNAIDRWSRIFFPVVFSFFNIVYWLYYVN
T2 sequence (P18507 40-475): as the sequence (P18507 40-475) above

Ki [1] [nM] | Relative Potentiation for GABAA1 (GABAA receptor α1β2γ2) | Relative Potentiation for GABAA2 (GABAA receptor α2β3γ2) | Compound
1.35 | 0.079 | 0.17 | Nc1c2c(nc3c(-c4ccncc4)cccc13)CN(C1CCC1)C2=O [9-Amino-2-cyclobutyl-5-pyridin-4-yl-2,3-dihydropyrrolo[3,4-b]quinolin-1-one]
8.3 | 0.013 | 0.12 | Nc1c2c(nc3c(-c4ncccn4)cccc13)CN(C1CCC1)C2=O [9-Amino-2-cyclobutyl-5-pyrimidin-2-yl-2,3-dihydropyrrolo[3,4-b]quinolin-1-one]
0.122 | 0.028 | 0.18 | COc1cccc(-c2c(F)ccc3c(N)c4c(nc23)CN(C2CCC2)C4=O)c1F [9-Amino-2-cyclobutyl-6-fluoro-5-(2-fluoro-3-methoxyphenyl)-2,3-dihydropyrrolo[3,4-b]quinolin-1-one]
0.333 | 0.025 | 0.26 | COc1ccc(F)c(-c2c(F)ccc3c(N)c4c(nc23)CN(C2CCC2)C4=O)c1 [9-Amino-2-cyclobutyl-6-fluoro-5-(2-fluoro-5-methoxyphenyl)-2,3-dihydropyrrolo[3,4-b]quinolin-1-one]
0.246 | 0.018 | 0.19 | Nc1c2c(nc3c(-c4cccnc4F)c(F)ccc13)CN(C1CCC1)C2=O [9-Amino-2-cyclobutyl-6-fluoro-5-(2-fluoropyridin-3-yl)-2,3-dihydropyrrolo[3,4-b]quinolin-1-one]
1.56 | −0.047 | 0.2 | COc1ccccc1-c1c(F)ccc2c(N)c3c(nc12)CN(C1CCC1)C3=O [9-Amino-2-cyclobutyl-6-fluoro-5-(2-methoxyphenyl)-2,3-dihydropyrrolo[3,4-b]quinolin-1-one]
0.847 | −0.01 | 0.28 | COc1ncccc1-c1c(F)ccc2c(N)c3c(nc12)CN(C1CCC1)C3=O [9-Amino-2-cyclobutyl-6-fluoro-5-(2-methoxypyridin-3-yl)-2,3-dihydropyrrolo[3,4-b]quinolin-1-one]
1.68 | 0.11 | 0.11 | C=Cc1ccccc1-c1c(F)ccc2c(N)c3c(nc12)CN(C1CCC1)C3=O [9-Amino-2-cyclobutyl-6-fluoro-5-(2-vinylphenyl)-2,3-dihydropyrrolo[3,4-b]quinolin-1-one]
0.185 | 0.02 | 0.27 | COc1cnccc1-c1c(F)ccc2c(N)c3c(nc12)CN(C1CCC1)C3=O [9-Amino-2-cyclobutyl-6-fluoro-5-(3-methoxypyridin-4-yl)-2,3-dihydropyrrolo[3,4-b]quinolin-1-one]
1.2 | 0.0067 | 0.15 | COc1cc(F)ccc1-c1c(F)ccc2c(N)c3c(nc12)CN(C1CCC1)C3=O [9-Amino-2-cyclobutyl-6-fluoro-5-(4-fluoro-2-methoxyphenyl)-2,3-dihydropyrrolo[3,4-b]quinolin-1-one]
0.333 | 0.11 | 0.26 | COc1ccc(F)cc1-c1c(F)ccc2c(N)c3c(nc12)CN(C1CCC1)C3=O [9-Amino-2-cyclobutyl-6-fluoro-5-(5-fluoro-2-methoxyphenyl)-2,3-dihydropyrrolo[3,4-b]quinolin-1-one]
1.14 | 0.042 | 0.19 | COc1ccc(-c2c(F)ccc3c(N)c4c(nc23)CN(C2CCC2)C4=O)c(C)n1 [9-Amino-2-cyclobutyl-6-fluoro-5-(6-methoxy-2-methylpyridin-3-yl)-2,3-dihydropyrrolo[3,4-b]quinolin-1-one]
3.04 | 0.065 | 0.17 | COc1cc(C)c(-c2c(F)ccc3c(N)c4c(nc23)CN(C2CCC2)C4=O)cn1 [9-Amino-2-cyclobutyl-6-fluoro-5-(6-methoxy-4-methylpyridin-3-yl)-2,3-dihydropyrrolo[3,4-b]quinolin-1-one]
2.63 | −0.04 | 0.19 | COc1ccc(-c2c(F)ccc3c(N)c4c(nc23)CN(C2CCC2)C4=O)cn1 [9-Amino-2-cyclobutyl-6-fluoro-5-(6-methoxypyridin-3-yl)-2,3-dihydropyrrolo[3,4-b]quinolin-1-one]
1.46 | −0.053 | 0.09 | Nc1c2c(nc3c(-c4cncnc4)c(F)ccc13)CN(C1CCC1)C2=O [9-Amino-2-cyclobutyl-6-fluoro-5-pyrimidin-5-yl-2,3-dihydropyrrolo[3,4-b]quinolin-1-one]
3.01 | −0.01 | 0.3 | COc1cccc(F)c1-c1cccc2c(N)c3c(nc12)CN(C1CCCC1)C3=O [9-Amino-2-cyclopentyl-5-(2-fluoro-6-methoxyphenyl)-2,3-dihydropyrrolo[3,4-b]quinolin-1-one]
17 | 0.033 | 0.16 | Nc1c2c(nc3c(-c4cccc(F)c4F)cccc13)CN(C1CC1)C2=O [9-Amino-2-cyclopropyl-5-(2,3-difluorophenyl)-2,3-dihydropyrrolo[3,4-b]quinolin-1-one]
20 | 0.018 | 0.14 | Nc1c2c(nc3c(-c4ccc(F)cc4F)cccc13)CN(C1CC1)C2=O [9-Amino-2-cyclopropyl-5-(2,4-difluorophenyl)-2,3-dihydropyrrolo[3,4-b]quinolin-1-one]
4.12 | 0.062 | 0.17 | COc1ccc(F)c(-c2c(F)ccc3c(N)c4c(nc23)CN(C2CC2)C4=O)c1F [9-Amino-2-cyclopropyl-5-(2,6-difluoro-3-methoxyphenyl)-6-fluoro-2,3-dihydropyrrolo[3,4-b]quinolin-1-one]
8.14 | −0.02 | 0.088 | COc1cc(F)c(-c2cccc3c(N)c4c(nc23)CN(C2CC2)C4=O)c(F)c1 [9-Amino-2-cyclopropyl-5-(2,6-difluoro-4-methoxyphenyl)-2,3-dihydropyrrolo[3,4-b]quinolin-1-one]
18.3 | −0.024 | 0.16 | Nc1c2c(nc3c(-c4ccccc4F)cccc13)CN(C1CC1)C2=O [9-Amino-2-cyclopropyl-5-(2-fluorophenyl)-2,3-dihydropyrrolo[3,4-b]quinolin-1-one]
29.9 | −0.11 | 0.1 | Cc1ccc(-c2cccc3c(N)c4c(nc23)CN(C2CC2)C4=O)cn1 [9-Amino-2-cyclopropyl-5-(6-methyl-pyridin-3-yl)-2,3-dihydropyrrolo[3,4-b]quinolin-1-one]
2.68 | 0.032 | 0.13 | COc1cccc(-c2c(F)ccc3c(N)c4c(nc23)CN(C2CC2)C4=O)c1F [9-Amino-2-cyclopropyl-6-fluoro-5-(2-fluoro-3-methoxyphenyl)-2,3-dihydropyrrolo[3,4-b]quinolin-1-one]
7.54 | 0.002 | 0.15 | COc1ccc(F)c(-c2c(F)ccc3c(N)c4c(nc23)CN(C2CC2)C4=O)c1 [9-Amino-2-cyclopropyl-6-fluoro-5-(2-fluoro-5-methoxyphenyl)-2,3-dihydropyrrolo[3,4-b]quinolin-1-one]
3.72 | 0.02 | 0.2 | COc1ccccc1-c1c(F)ccc2c(N)c3c(nc12)CN(C1CC1)C3=O [9-Amino-2-cyclopropyl-6-fluoro-5-(2-methoxyphenyl)-2,3-dihydropyrrolo[3,4-b]quinolin-1-one]
25.5 | 0.09 | 0.18 | CCN1Cc2nc3c(-c4ccc(F)c(OC)c4)cccc3c(N)c2C1=O [9-Amino-2-ethyl-5-(4-fluoro-3-methoxyphenyl)-2,3-dihydropyrrolo[3,4-b]quinolin-1-one]
23.4 | 0.08 | 0.14 | CCN1Cc2nc3c(-c4cnccc4C)cccc3c(N)c2C1=O [9-Amino-2-ethyl-5-(4-methylpyridin-3-yl)-2,3-dihydropyrrolo[3,4-b]quinolin-1-one]

Compound | Ki [1] [nM] | Relative Potentiation for GABAA1 (GABAA receptor α1β2γ2) | Relative Potentiation for GABAA2 (GABAA receptor α2β3γ2)
Cc1ccc(-c2c(F)ccc3c(N)c4c(nc23)CN(C2CCC2)C4=O)cn1 [9-Amino-2-cyclobutyl-6-fluoro-5-(6-methylpyridin-3-yl)-2,3-dihydropyrrolo[3,4-b]quinolin-1-one] | 0.305 | 0 | 0.15
Cc1ccc(-c2cccc3c(N)c4c(nc23)CN(C2CC2)C4=O)c(F)n1 [9-Amino-2-cyclopropyl-5-(2-fluoro-6-methylpyridin-3-yl)-2,3-dihydropyrrolo[3,4-b]quinolin-1-one] | 43.4 | 0 | 0.18
